Test results reported in ChEMBL document CHEMBL1201862, “PubChem BioAssay data set” (2004).
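Growth conditions: 96-well plates. Treatment: test compound, 48 hours, 5 concentrations. Analysis: linear interpolation between bracketing concentrations; unreached endpoints set to highest concentration. GI50 is the concentration that inhibits growth by half.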 The source made the active and inactive calls. No stated cut-off is given here; in the data, active = GI50 up to about 1.1 µM and inactive = higher.

Assays:
Experiment in all cases: growth of human tumour cells (NCI), 48 h
[1] = test system: MCF7
[2] = test system: DU-145
[3] = test system: UACC-62
[4] = test system: SK-OV-3
[5] = test system: SNB-75
[6] = test system: K562
[7] = test system: SN12C
[8] = test system: M14
[9] = test system: SK-MEL-5
[10] = test system: IGROV-1
[11] = test system: MOLT-4
[12] = test system: 786-0
[13] = test system: SW-620
[14] = test system: MDA-N
[15] = test system: Hs-578T
[16] = test system: OVCAR-5
[17] = test system: NCI-H522
[18] = test system: NCI-H23
[19] = test system: ACHN
[20] = test system: A498

Structure (SMILES)	GI50 [1]	GI50 [2]	GI50 [3]	GI50 [4]	GI50 [5]	GI50 [6]	GI50 [7]	GI50 [8]	GI50 [9]	GI50 [10]	GI50 [11]	GI50 [12]	GI50 [13]	GI50 [14]	GI50 [15]	GI50 [16]	GI50 [17]	GI50 [18]	GI50 [19]	GI50 [20]
Cc1cc(S(=O)(=O)N/C(=N/N)NCCc2ccccc2)c(S)cc1Cl	32.4 µM (inactive)	18.5 µM (inactive)	18.1 µM (inactive)	23.3 µM (inactive)	25.6 µM (inactive)	30.6 µM (inactive)	33.5 µM (inactive)	24.1 µM (inactive)	19.2 µM (inactive)	36 µM (inactive)	17.7 µM (inactive)	30.5 µM (inactive)	24 µM (inactive)	> 10 µM (inactive)	25.5 µM (inactive)	19.5 µM (inactive)	29.6 µM (inactive)	–	–	–
Cc1nc2c(c(N3CCN(C)CC3)n1)Cc1ccccc1-2	70.3 µM (inactive)	> 100 µM (inactive)	42.6 µM (inactive)	> 100 µM (inactive)	91.2 µM (inactive)	34.6 µM (inactive)	–	50.9 µM (inactive)	51.2 µM (inactive)	–	> 10 µM (inactive)	68.2 µM (inactive)	31 µM (inactive)	58.5 µM (inactive)	65 µM (inactive)	80.7 µM (inactive)	16.9 µM (inactive)	57.8 µM (inactive)	34.2 µM (inactive)	–
CCCCn1c(N)c(-c2nc3ccccc3o2)sc1=S	24.7 µM (inactive)	12.4 µM (inactive)	11.2 µM (inactive)	22.7 µM (inactive)	–	22.3 µM (inactive)	22.1 µM (inactive)	23 µM (inactive)	14 µM (inactive)	21.8 µM (inactive)	43 µM (inactive)	17.3 µM (inactive)	–	15.6 µM (inactive)	26.9 µM (inactive)	24.8 µM (inactive)	14.2 µM (inactive)	15.6 µM (inactive)	10.3 µM (inactive)	31.8 µM (inactive)
C=CCNC(=O)N1CC(C)C(=O)Nc2ccccc21 (stereo unspecified)	> 100 µM (inactive)	> 100 µM (inactive)	–	> 100 µM (inactive)	–	> 100 µM (inactive)	> 100 µM (inactive)	> 100 µM (inactive)	> 100 µM (inactive)	> 100 µM (inactive)	> 100 µM (inactive)	> 100 µM (inactive)	> 100 µM (inactive)	> 100 µM (inactive)	> 100 µM (inactive)	> 100 µM (inactive)	> 100 µM (inactive)	> 100 µM (inactive)	> 100 µM (inactive)	> 100 µM (inactive)
CC(C)=CCN1c2ccccc2[C@@]2(CC=C(C)C)CCN(C)[C@@H]12 [(+)-DEBROMOFLUSTRAMINE B]	17.3 µM (inactive)	45.2 µM (inactive)	15.7 µM (inactive)	24.4 µM (inactive)	26.1 µM (inactive)	19.6 µM (inactive)	27.4 µM (inactive)	–	17.6 µM (inactive)	21.6 µM (inactive)	25.6 µM (inactive)	19.2 µM (inactive)	26.7 µM (inactive)	26.5 µM (inactive)	22 µM (inactive)	> 100 µM (inactive)	18.6 µM (inactive)	40.5 µM (inactive)	32.5 µM (inactive)	–
CSc1ccc(/C=C2\N=C(c3ccccc3)N(/N=C/c3cc4cc(C)ccc4nc3Cl)C2=O)cc1	11.4 µM (inactive)	17.8 µM (inactive)	15.6 µM (inactive)	24 µM (inactive)	21.2 µM (inactive)	22 µM (inactive)	17.7 µM (inactive)	16.7 µM (inactive)	16.1 µM (inactive)	14.3 µM (inactive)	13.5 µM (inactive)	17.9 µM (inactive)	27.4 µM (inactive)	14.4 µM (inactive)	23.1 µM (inactive)	22.9 µM (inactive)	–	–	16.3 µM (inactive)	17.5 µM (inactive)
Clc1ccc(NCc2nnc(COc3ccc(OCc4nnc(CNc5ccc(Cl)cc5)o4)c(Cl)c3)o2)cc1	17.5 µM (inactive)	> 100 µM (inactive)	4.66 µM (inactive)	–	–	–	43.5 µM (inactive)	> 100 µM (inactive)	5.7 µM (inactive)	17.2 µM (inactive)	–	> 100 µM (inactive)	38.2 µM (inactive)	20.4 µM (inactive)	28.1 µM (inactive)	> 100 µM (inactive)	10.6 µM (inactive)	44 µM (inactive)	38.1 µM (inactive)	28.4 µM (inactive)
C#CCn1c(=O)c(C)cn(/C(=C\C(=O)OCC)C(=O)OCC)c1=O	2.72 µM (inactive)	16.1 µM (inactive)	10.1 µM (inactive)	28.6 µM (inactive)	17.6 µM (inactive)	2.63 µM (inactive)	6.3 µM (inactive)	4.19 µM (inactive)	22.3 µM (inactive)	8.63 µM (inactive)	2.65 µM (inactive)	2.82 µM (inactive)	1.67 µM (inactive)	7.5 µM (inactive)	24.8 µM (inactive)	7.06 µM (inactive)	–	12.6 µM (inactive)	1.69 µM (inactive)	17.2 µM (inactive)
N#C/C(=N/Nc1[nH]cnc1C(N)=O)C(=O)Nc1ccccc1	54 µM (inactive)	6.3 µM (inactive)	9.18 µM (inactive)	4.66 µM (inactive)	24.5 µM (inactive)	1.52 µM (inactive)	4.71 µM (inactive)	4.99 µM (inactive)	58.5 µM (inactive)	4.55 µM (inactive)	4.88 µM (inactive)	22.8 µM (inactive)	12.5 µM (inactive)	12.9 µM (inactive)	67.8 µM (inactive)	34.6 µM (inactive)	7.71 µM (inactive)	56.8 µM (inactive)	15.2 µM (inactive)	–
O=C1C(c2c(O)[nH]c3ccc(F)cc23)=Nc2ccccc21	6.56 µM (inactive)	> 100 µM (inactive)	> 100 µM (inactive)	6.24 µM (inactive)	3.21 µM (inactive)	44.2 µM (inactive)	> 100 µM (inactive)	> 100 µM (inactive)	> 100 µM (inactive)	1.03 µM (active)	21.1 µM (inactive)	4.85 µM (inactive)	> 100 µM (inactive)	> 100 µM (inactive)	13.6 µM (inactive)	> 100 µM (inactive)	> 100 µM (inactive)	73.1 µM (inactive)	> 100 µM (inactive)	–
CC1(C)CC2(C)CC1CC2(O)c1ccccc1 (stereo unspecified)	–	> 100 µM (inactive)	> 100 µM (inactive)	> 100 µM (inactive)	> 100 µM (inactive)	> 100 µM (inactive)	> 100 µM (inactive)	> 100 µM (inactive)	> 100 µM (inactive)	> 100 µM (inactive)	> 100 µM (inactive)	> 100 µM (inactive)	> 100 µM (inactive)	> 100 µM (inactive)	> 100 µM (inactive)	> 100 µM (inactive)	> 100 µM (inactive)	> 100 µM (inactive)	> 100 µM (inactive)	> 100 µM (inactive)
CSCSSC	–	> 100 µM (inactive)	61.7 µM (inactive)	74.6 µM (inactive)	52.1 µM (inactive)	95.3 µM (inactive)	> 100 µM (inactive)	> 100 µM (inactive)	> 100 µM (inactive)	> 79.6 µM (inactive)	4.67 µM (inactive)	> 100 µM (inactive)	49.4 µM (inactive)	> 93.3 µM (inactive)	> 100 µM (inactive)	> 100 µM (inactive)	> 100 µM (inactive)	> 83 µM (inactive)	> 100 µM (inactive)	0.0231 µM (active)
CCCCCCCCCCC(C(=O)O)C1(C(=O)O)CCC(=O)O1 (stereo unspecified)	> 100 µM (inactive)	> 100 µM (inactive)	> 100 µM (inactive)	> 100 µM (inactive)	> 100 µM (inactive)	> 100 µM (inactive)	> 100 µM (inactive)	> 100 µM (inactive)	–	> 100 µM (inactive)	> 100 µM (inactive)	> 100 µM (inactive)	> 100 µM (inactive)	> 100 µM (inactive)	> 100 µM (inactive)	> 100 µM (inactive)	> 100 µM (inactive)	> 100 µM (inactive)	> 100 µM (inactive)	–
CCCCCCCCCCCCCC[S+](C)C	1.67 µM (inactive)	3.8 µM (inactive)	2.22 µM (inactive)	4.02 µM (inactive)	1.58 µM (inactive)	1.4 µM (inactive)	1.59 µM (inactive)	1.83 µM (inactive)	1.53 µM (inactive)	1.12 µM (inactive)	1.23 µM (inactive)	1.33 µM (inactive)	2.33 µM (inactive)	2.08 µM (inactive)	1.65 µM (inactive)	2.88 µM (inactive)	1.75 µM (inactive)	1.5 µM (inactive)	3.32 µM (inactive)	–
CC(=O)NC1C(OCc2ccccc2)OC(CO)C(O)C1OCC(=O)N1CCCC1C(=O)N[C@@H](CCC(=O)NCCCCNc1c2ccccc2nc2cccc([N+](=O)[O-])c12)C(N)=O (stereo partly specified)	9.1 µM (inactive)	31.8 µM (inactive)	–	99.1 µM (inactive)	21.4 µM (inactive)	26.4 µM (inactive)	23.7 µM (inactive)	16 µM (inactive)	–	14.8 µM (inactive)	32.5 µM (inactive)	46.1 µM (inactive)	11.5 µM (inactive)	14.8 µM (inactive)	21.1 µM (inactive)	25.8 µM (inactive)	–	15.7 µM (inactive)	26.6 µM (inactive)	35.7 µM (inactive)
